From US20240166642A1, “INHIBITORS OF MYELOPEROXIDASE” (ASTRAZENECA AB, priority 2022, published 2024)

Assays:
[1] = target: MPO (purified from HL60 cells) (Homo sapiens (Human), UniProt P05164); assay: MPO activity (IC50), luminol chemiluminescence assay; type: biochemical; settings: PBS pH7.4, luminol 100 μM, H2O2 50 μM, chemiluminescence recorded after 15 minutes
Description: (§1) The experiments were performed in phosphate-buffered saline (PBS), pH7.4. A 10 mM luminol (A4695, Sigma Aldrich, St Louis, MO, USA) stock was prepared in distilled water and further diluted in PBS to a final concentration of 100 μM. H2O2 was prepared as 1 mM stock in PBS, yielding a final concentration of 50 μM after addition into the assay. The compounds were serially diluted in DMSO in a separate plate as a 100× stock solution, and MPO (purified from HL60 cells) and TPO (produced in insect cells, RSR Ltd, Cardiff, UK), were diluted to yield a final concentration of approximately 14 and 150 ng/mL, generating 5600 and 9300 light counts per seconds (LCPS) upon incubation with luminol.
(§2) The experiment was run by pipetting 2 μL 100× stock solution of the compound and 200 μL diluted enzyme in PBS into wells in a 96-well Optiplate (6005290, Perkin Elmer/Thermo Fischer, Waltham, MS, USA), followed by addition of 10 μL H2O2 containing PBS. Chemiluminescence measurement (Perkin Elmer Wallac Microbeta Trilux 1450-029 (12-detector), Turkuu, Finland) was started directly and recorded after 2, 10 and 15 minutes.

[2] = target: TPO (produced in insect cells, RSR Ltd) (Homo sapiens (Human), UniProt P07202); assay: TPO activity (IC50), luminol chemiluminescence assay; type: biochemical; settings: PBS pH7.4, luminol 100 μM, H2O2 50 μM, chemiluminescence recorded after 15 minutes
TPO (produced in insect cells, RSR Ltd), sequence (P07202 19-933): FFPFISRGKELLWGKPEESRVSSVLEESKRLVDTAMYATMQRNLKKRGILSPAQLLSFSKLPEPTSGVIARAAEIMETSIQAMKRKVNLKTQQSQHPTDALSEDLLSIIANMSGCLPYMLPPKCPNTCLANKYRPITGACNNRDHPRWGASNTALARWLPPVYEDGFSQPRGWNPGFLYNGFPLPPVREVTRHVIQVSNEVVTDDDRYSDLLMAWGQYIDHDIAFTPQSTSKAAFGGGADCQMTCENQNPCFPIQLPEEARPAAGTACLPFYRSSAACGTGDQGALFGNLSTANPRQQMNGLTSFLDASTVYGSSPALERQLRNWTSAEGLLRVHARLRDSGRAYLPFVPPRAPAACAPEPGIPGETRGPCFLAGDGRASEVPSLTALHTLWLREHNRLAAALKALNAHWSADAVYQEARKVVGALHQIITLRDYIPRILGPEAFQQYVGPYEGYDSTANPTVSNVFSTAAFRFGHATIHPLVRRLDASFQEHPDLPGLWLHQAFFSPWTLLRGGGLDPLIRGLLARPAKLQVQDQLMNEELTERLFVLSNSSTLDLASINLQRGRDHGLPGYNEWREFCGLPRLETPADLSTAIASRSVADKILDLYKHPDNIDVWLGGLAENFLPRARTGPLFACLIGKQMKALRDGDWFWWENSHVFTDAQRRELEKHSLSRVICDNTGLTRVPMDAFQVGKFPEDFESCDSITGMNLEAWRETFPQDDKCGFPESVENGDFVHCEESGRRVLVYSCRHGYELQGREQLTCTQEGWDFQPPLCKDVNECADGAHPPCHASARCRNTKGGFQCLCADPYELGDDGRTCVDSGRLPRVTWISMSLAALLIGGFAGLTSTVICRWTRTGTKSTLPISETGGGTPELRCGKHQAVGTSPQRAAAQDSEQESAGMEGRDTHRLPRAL
Description: as §1, §2

MPO (purified from HL60 cells), sequence (P05164 49-745): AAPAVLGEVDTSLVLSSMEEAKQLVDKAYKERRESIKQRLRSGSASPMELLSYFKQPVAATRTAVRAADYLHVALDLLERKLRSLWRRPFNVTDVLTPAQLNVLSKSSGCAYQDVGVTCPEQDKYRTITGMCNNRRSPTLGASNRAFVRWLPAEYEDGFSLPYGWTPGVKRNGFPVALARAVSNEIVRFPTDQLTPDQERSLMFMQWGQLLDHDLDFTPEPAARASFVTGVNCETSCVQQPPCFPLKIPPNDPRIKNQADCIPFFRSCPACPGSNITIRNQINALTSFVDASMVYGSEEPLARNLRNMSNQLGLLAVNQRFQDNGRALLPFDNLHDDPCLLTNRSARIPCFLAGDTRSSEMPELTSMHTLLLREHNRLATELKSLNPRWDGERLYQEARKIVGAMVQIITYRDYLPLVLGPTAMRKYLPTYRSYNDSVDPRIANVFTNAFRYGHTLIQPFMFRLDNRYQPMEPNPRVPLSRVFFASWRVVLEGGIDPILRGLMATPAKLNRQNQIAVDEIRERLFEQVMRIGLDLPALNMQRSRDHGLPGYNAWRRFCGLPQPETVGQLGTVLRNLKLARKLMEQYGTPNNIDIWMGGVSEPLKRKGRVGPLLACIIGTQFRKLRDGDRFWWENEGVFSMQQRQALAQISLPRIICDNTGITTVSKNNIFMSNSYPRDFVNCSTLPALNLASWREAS

| SMILES | IC50 [1] [nM] | IC50 [2] [nM] |
| --- | --- | --- |
| O=c1[nH]c(=S)n(Cc2cccc3c2CNC3)c2cc[nH]c12 [Example 26, 1-(Isoindolin-4-ylmethyl)-2-thioxo-1,2,3,5-tetrahydro-4H-pyrrolo[3,2-d]pyrimidin-4-one] | 13 | 840 |
| O=c1[nH]c(=S)n(Cc2ccccc2[C@H]2C[C@@H](C(F)F)CCN2)c2cc[nH]c12 (single isomer, unassigned) [Example 19a] | 11.9 | 1760 |
| O=c1[nH]c(=S)n(Cc2ccc(Cl)cc2[C@H]2COCCN2)c2cc[nH]c12 (single isomer, unassigned) [Example 4b] | 127 | 810 |

The next compounds have a lower IC50 [1] than those just listed; values first:

| IC50 [1] [nM] | IC50 [2] [nM] | SMILES |
| --- | --- | --- |
| 2.3 | 430 | O=c1[nH]c(=S)n(Cc2ccccc2[C@@H]2C[C@H](C(F)(F)F)CCN2)c2nc[nH]c12 [Example 13b, 2-Thioxo-3-(2-((2S,4R)-4-(trifluoromethyl)piperidin-2-yl)benzyl)-1,2,3,7-tetrahydro-6H-purin-6-one] |
| 2.7 | 320 | O=c1[nH]c(=S)n(Cc2ccccc2[C@H]2CC(F)(F)CCN2)c2cc[nH]c12 (single isomer, unassigned) [Example 12b] |
| 11.5 | 950 | O=c1[nH]c(=S)n(Cc2ccncc2[C@H]2C[C@@H](C(F)(F)F)CCN2)c2cc[nH]c12 (racemic) [Example 22, rac-2-Thioxo-1-((3-((2R,4S)-4-(trifluoromethyl)piperidin-2-yl)pyridin-4-yl)methyl)-1,2,3,5-tetrahydro-4H-pyrrolo[3,2-d]pyrimidin-4-one] |
